Structures are written as SMILES.

Assay in all cases: Weeding effect in post-emergence stage
Common to all, as to assay type: in vivo

The test system of one assay is Echinochloa crusgalli. The following applies: for Weeding effect in post-emergence stage, Echinochloa crusgalli (level): fresh weight control rate level; for Weeding effect in post-emergence stage, Echinochloa crusgalli: level of fresh weight growth control rate. The procedure, abridged: (§1)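 Doses of 500, 250, 125, 60, 30, 15 and 7.5 g/ha, with methyl oleate synergist (1.5 liter/ha) and Tween 80 from acetone solution, applied by spray tower post-emergence (2–3 leaf stage). Weed control scored after 3 further greenhouse weeks, averaged over triplicates.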

A further assay concerns Abutilon theophrasti. The following applies: for Weeding effect in post-emergence stage, Abutilon theophrasti (level): fresh weight control rate level; for Weeding effect in post-emergence stage, Abutilon theophrasti: level of fresh weight growth control rate. The procedure, abridged: as §1
The next assay concerns Alopecurus japonicus. The following applies: for Weeding effect in post-emergence stage, Alopecurus japonicus (level): fresh weight control rate level; for Weeding effect in post-emergence stage, Alopecurus japonicus: level of fresh weight growth control rate. The procedure, abridged: as §1
For another assay, the system named is Setaria viridis. As to conditions: for Weeding effect in post-emergence stage, Setaria viridis (level): fresh weight control rate level; for Weeding effect in post-emergence stage, Setaria viridis: level of fresh weight growth control rate. The procedure, abridged: as §1
The next assay deals with Digitaria sanguinalis. The following applies: for Weeding effect in post-emergence stage, Digitaria sanguinalis (level): fresh weight control rate level; for Weeding effect in post-emergence stage, Digitaria sanguinalis: level of fresh weight growth control rate. Summed up: as §1
The subject of a further assay is Eleusine indica. The following applies: for Weeding effect in post-emergence stage, Eleusine indica (level): fresh weight control rate level; for Weeding effect in post-emergence stage, Eleusine indica: level of fresh weight growth control rate. Summed up: as §1

As to `COC(=O)[C@@H](CC(C)C)O/N=C/c1cc(-n2c(=O)cc(C(F)(F)F)n(C)c2=O)c(F)cc1Cl` [455(R)], in the assay on Echinochloa crusgalli (Dose 15 g/ha), the “Weeding effect in post-emergence stage, Echinochloa crusgalli (level)” value (“Weeding effect … Echinochloa crusgalli (level)” for short) is recorded as 5 (Level 5: growth control rate is above 85%). The “Weeding effect in post-emergence stage, Abutilon theophrasti (level)” value (“Weeding effect … Abutilon theophrasti (level)” for short) with Abutilon theophrasti (Dose 15 g/ha) was 5 (Level 5: growth control rate is above 85%). Besides, in the assay with Alopecurus japonicus (Dose 15 g/ha), the “Weeding effect in post-emergence stage, Alopecurus japonicus (level)” value (“Weeding effect … Alopecurus japonicus (level)” below) is 5 (Level 5: growth control rate is above 85%). The “Weeding effect in post-emergence stage, Setaria viridis (level)” value (shortened to “Weeding effect … Setaria viridis (level)”) in the assay on Setaria viridis (Dose 15 g/ha) is recorded as 5 (Level 5: growth control rate is above 85%). The “Weeding effect in post-emergence stage, Digitaria sanguinalis (level)” value (“Weeding effect … Digitaria sanguinalis (level)” below) in the assay on Digitaria sanguinalis (Dose 15 g/ha) is on record as 5 (Level 5: growth control rate is above 85%). Also, the “Weeding effect in post-emergence stage, Eleusine indica (level)” value (“Weeding effect … Eleusine indica (level)” below) in the assay on Eleusine indica (Dose 15 g/ha) is 5 (Level 5: growth control rate is above 85%).

Turning to `CCOC(=O)[C@H](O/N=C/c1cc(-n2c(=O)cc(C(F)(F)F)n(C)c2=O)c(F)cc1Cl)C1CC1` [319(R)], the “Weeding effect in post-emergence stage, Echinochloa crusgalli” value in the assay with Echinochloa crusgalli (Dose 30 g/ha) is on record as 5 (Level 5: growth control rate is above 85%). Further, the “Weeding effect in post-emergence stage, Abutilon theophrasti” value in the assay on Abutilon theophrasti (Dose 30 g/ha) was 5 (Level 5: growth control rate is above 85%). Further, the “Weeding effect in post-emergence stage, Alopecurus japonicus” value in the assay with Alopecurus japonicus (Dose 30 g/ha) is 5 (Level 5: growth control rate is above 85%). For the same compound, in the assay on Setaria viridis (Dose 30 g/ha), the “Weeding effect in post-emergence stage, Setaria viridis” value is listed as 5 (Level 5: growth control rate is above 85%). For the same compound, in the assay on Digitaria sanguinalis (Dose 30 g/ha), the “Weeding effect in post-emergence stage, Digitaria sanguinalis” value is 5 (Level 5: growth control rate is above 85%). The “Weeding effect in post-emergence stage, Eleusine indica” value with Eleusine indica (Dose 30 g/ha) is on record as 5 (Level 5: growth control rate is above 85%).

For `CCSC(=O)C(C)O/N=C/c1cc(-n2c(=O)cc(C(F)(F)F)n(C)c2=O)c(F)cc1Cl` (stereo not drawn) [Compound 398], the “Weeding effect … Echinochloa crusgalli (level)” value in the assay with Echinochloa crusgalli (Dose 15 g/ha) is on record as 5 (Level 5: growth control rate is above 85%). For the same compound, the “Weeding effect … Abutilon theophrasti (level)” value in the assay with Abutilon theophrasti (Dose 15 g/ha) is on record as 5 (Level 5: growth control rate is above 85%). In addition, the “Weeding effect … Alopecurus japonicus (level)” value with Alopecurus japonicus (Dose 15 g/ha) was 5 (Level 5: growth control rate is above 85%). Also, the “Weeding effect … Setaria viridis (level)” value in the assay on Setaria viridis (Dose 15 g/ha) is on record as 5 (Level 5: growth control rate is above 85%). Also, in the assay on Digitaria sanguinalis (Dose 15 g/ha), the “Weeding effect … Digitaria sanguinalis (level)” value is reported as 5 (Level 5: growth control rate is above 85%). For the same compound, the “Weeding effect … Eleusine indica (level)” value with Eleusine indica (Dose 15 g/ha) is listed as 5 (Level 5: growth control rate is above 85%).

Take `CCCC(O/N=C/c1cc(-n2c(=O)cc(C(F)(F)F)n(C)c2=O)c(F)cc1Cl)C(=O)OC` (stereo not drawn) [Compound 316]: the “Weeding effect in post-emergence stage, Echinochloa crusgalli” value in the assay on Echinochloa crusgalli (Dose 15 g/ha) was 5 (Level 5: growth control rate is above 85%). Besides, in the assay with Abutilon theophrasti (Dose 15 g/ha), the “Weeding effect in post-emergence stage, Abutilon theophrasti” value is recorded as 5 (Level 5: growth control rate is above 85%). Moreover, in the assay on Alopecurus japonicus (Dose 15 g/ha), the “Weeding effect in post-emergence stage, Alopecurus japonicus” value is on record as 5 (Level 5: growth control rate is above 85%). Besides, the “Weeding effect in post-emergence stage, Setaria viridis” value in the assay on Setaria viridis (Dose 15 g/ha) is 5 (Level 5: growth control rate is above 85%). The “Weeding effect in post-emergence stage, Digitaria sanguinalis” value in the assay on Digitaria sanguinalis (Dose 15 g/ha) was 5 (Level 5: growth control rate is above 85%). Besides, in the assay with Eleusine indica (Dose 15 g/ha), the “Weeding effect in post-emergence stage, Eleusine indica” value is on record as 5 (Level 5: growth control rate is above 85%).

On to `CC(C#N)COC(=O)[C@@H](C)O/N=C/c1cc(-n2c(=O)cc(C(F)(F)F)n(C)c2=O)c(F)cc1Cl` (stereo partly drawn) [445(R)], for which the “Weeding effect … Echinochloa crusgalli (level)” value in the assay on Echinochloa crusgalli (Dose 15 g/ha) is 5 (Level 5: growth control rate is above 85%). Besides, the “Weeding effect … Abutilon theophrasti (level)” value in the assay on Abutilon theophrasti (Dose 15 g/ha) is on record as 5 (Level 5: growth control rate is above 85%). The “Weeding effect … Alopecurus japonicus (level)” value in the assay on Alopecurus japonicus (Dose 15 g/ha) was 5 (Level 5: growth control rate is above 85%). For the same compound, the “Weeding effect … Setaria viridis (level)” value with Setaria viridis (Dose 15 g/ha) is listed as 5 (Level 5: growth control rate is above 85%). Also, in the assay with Digitaria sanguinalis (Dose 15 g/ha), the “Weeding effect … Digitaria sanguinalis (level)” value is recorded as 5 (Level 5: growth control rate is above 85%). Besides, the “Weeding effect … Eleusine indica (level)” value in the assay on Eleusine indica (Dose 15 g/ha) is given as 5 (Level 5: growth control rate is above 85%).

With `C#CCCOC(=O)C(C)O/N=C/c1cc(-n2c(=O)cc(C(F)(F)F)n(C)c2=O)c(F)cc1Cl` (stereo not drawn) [Compound 442], the “Weeding effect … Echinochloa crusgalli (level)” value with Echinochloa crusgalli (Dose 15 g/ha) is given as 5 (Level 5: growth control rate is above 85%). For the same compound, the “Weeding effect … Abutilon theophrasti (level)” value in the assay with Abutilon theophrasti (Dose 15 g/ha) is 5 (Level 5: growth control rate is above 85%). The “Weeding effect … Alopecurus japonicus (level)” value with Alopecurus japonicus (Dose 15 g/ha) is recorded as 5 (Level 5: growth control rate is above 85%). Besides, the “Weeding effect … Setaria viridis (level)” value in the assay with Setaria viridis (Dose 15 g/ha) was 5 (Level 5: growth control rate is above 85%). Besides, in the assay with Digitaria sanguinalis (Dose 15 g/ha), the “Weeding effect … Digitaria sanguinalis (level)” value is listed as 5 (Level 5: growth control rate is above 85%). Further, the “Weeding effect … Eleusine indica (level)” value in the assay with Eleusine indica (Dose 15 g/ha) is on record as 5 (Level 5: growth control rate is above 85%).

Regarding `CCCCCCOC(=O)C(C)O/N=C/c1cc(-n2c(=O)cc(C(F)(F)F)n(C)c2=O)c(F)cc1Cl` (racemic) [Compound 204], the “Weeding effect in post-emergence stage, Echinochloa crusgalli” value with Echinochloa crusgalli (Dose 15 g/ha) is listed as 5 (Level 5: growth control rate is above 85%). Besides, the “Weeding effect in post-emergence stage, Abutilon theophrasti” value in the assay on Abutilon theophrasti (Dose 15 g/ha) is 5 (Level 5: growth control rate is above 85%). For the same compound, in the assay on Alopecurus japonicus (Dose 15 g/ha), the “Weeding effect in post-emergence stage, Alopecurus japonicus” value is recorded as 5 (Level 5: growth control rate is above 85%). In addition, the “Weeding effect in post-emergence stage, Setaria viridis” value with Setaria viridis (Dose 15 g/ha) is reported as 5 (Level 5: growth control rate is above 85%). Also, the “Weeding effect in post-emergence stage, Digitaria sanguinalis” value in the assay with Digitaria sanguinalis (Dose 15 g/ha) is 5 (Level 5: growth control rate is above 85%). Also, the “Weeding effect in post-emergence stage, Eleusine indica” value in the assay with Eleusine indica (Dose 15 g/ha) is on record as 5 (Level 5: growth control rate is above 85%).

On to `CCCCCCCCOC(=O)[C@@H](C)O/N=C/c1cc(-n2c(=O)cc(C(F)(F)F)n(C)c2=O)c(F)cc1Cl` [206(R)], for which the “Weeding effect in post-emergence stage, Echinochloa crusgalli” value in the assay on Echinochloa crusgalli (Dose 15 g/ha) is 5 (Level 5: growth control rate is above 85%). For the same compound, the “Weeding effect in post-emergence stage, Abutilon theophrasti” value with Abutilon theophrasti (Dose 15 g/ha) is listed as 5 (Level 5: growth control rate is above 85%). Also, in the assay on Alopecurus japonicus (Dose 15 g/ha), the “Weeding effect in post-emergence stage, Alopecurus japonicus” value is reported as 5 (Level 5: growth control rate is above 85%). Further, the “Weeding effect in post-emergence stage, Setaria viridis” value in the assay on Setaria viridis (Dose 15 g/ha) is 5 (Level 5: growth control rate is above 85%). In addition, in the assay on Digitaria sanguinalis (Dose 15 g/ha), the “Weeding effect in post-emergence stage, Digitaria sanguinalis” value is given as 5 (Level 5: growth control rate is above 85%). Besides, in the assay on Eleusine indica (Dose 15 g/ha), the “Weeding effect in post-emergence stage, Eleusine indica” value is reported as 5 (Level 5: growth control rate is above 85%).

Take `C[C@@H](O/N=C/c1cc(-n2c(=O)n(C)c(=S)n(C)c2=O)c(F)cc1Cl)C(=O)OCCCC(F)(F)F` [12(R)]: the “Weeding effect in post-emergence stage, Echinochloa crusgalli” value with Echinochloa crusgalli (Dose 15 g/ha) was 5 (Level 5: growth control rate is above 85%). Moreover, the “Weeding effect in post-emergence stage, Abutilon theophrasti” value in the assay on Abutilon theophrasti (Dose 15 g/ha) is 5 (Level 5: growth control rate is above 85%). In addition, in the assay with Alopecurus japonicus (Dose 15 g/ha), the “Weeding effect in post-emergence stage, Alopecurus japonicus” value is 5 (Level 5: growth control rate is above 85%). Moreover, the “Weeding effect in post-emergence stage, Setaria viridis” value with Setaria viridis (Dose 15 g/ha) was 5 (Level 5: growth control rate is above 85%). In addition, the “Weeding effect in post-emergence stage, Digitaria sanguinalis” value in the assay on Digitaria sanguinalis (Dose 15 g/ha) is 5 (Level 5: growth control rate is above 85%). Also, the “Weeding effect in post-emergence stage, Eleusine indica” value in the assay on Eleusine indica (Dose 15 g/ha) is reported as 5 (Level 5: growth control rate is above 85%).

Regarding `COC(=O)CCNC(=O)C(C)O/N=C/c1cc(-n2c(=O)n(C)c(=S)n(C)c2=O)c(F)cc1Cl` (racemic) [Compound 183], the “Weeding effect in post-emergence stage, Echinochloa crusgalli” value with Echinochloa crusgalli (Dose 15 g/ha) is 5 (Level 5: growth control rate is above 85%). Further, the “Weeding effect in post-emergence stage, Abutilon theophrasti” value with Abutilon theophrasti (Dose 15 g/ha) was 5 (Level 5: growth control rate is above 85%). Besides, the “Weeding effect in post-emergence stage, Alopecurus japonicus” value in the assay with Alopecurus japonicus (Dose 15 g/ha) was 5 (Level 5: growth control rate is above 85%). In addition, in the assay on Setaria viridis (Dose 15 g/ha), the “Weeding effect in post-emergence stage, Setaria viridis” value is given as 5 (Level 5: growth control rate is above 85%). Moreover, the “Weeding effect in post-emergence stage, Digitaria sanguinalis” value in the assay with Digitaria sanguinalis (Dose 15 g/ha) is listed as 5 (Level 5: growth control rate is above 85%). For the same compound, the “Weeding effect in post-emergence stage, Eleusine indica” value with Eleusine indica (Dose 15 g/ha) is 5 (Level 5: growth control rate is above 85%).

The record behind these values is US20230111310A1, “CARBOXYLIC ACID DERIVATIVE-SUBSTITUTED IMINO ARYL COMPOUND, PREPARATION METHOD THEREFOR, HERBICIDAL COMPOSITION AND USE THEREOF” (Qingdao Kingagroot Chemical Compound Co., Ltd., priority 2020, published 2023).
